Where two headings read alike, the source gives them in different places. Bounds are passed on as bounds.

Assay [1] has as its system MV-4-11 cells. The experiment in a line: Antiproliferative activity against MV-4-11 cells (CellTiter-Glo, 72 h). Format: cell-based. The settings on record: Homo sapiens, read-out: Antiproliferative activity IC50. As to the method:
MV411 cells in the logarithmic growth phase were diluted in a medium (RPMI+10% FBS) and plated at 5,000 cells/well in 96-well whole black plates (WHB) with 50 μL/well. After plating, the plates were incubated in an incubator at 5% CO2 and 37° C. for 24 h before the compounds were added. The compounds were prepared into a 10 mM stock solution in DMSO and diluted in a culture medium to the desired concentrations (a final DMSO concentration of 0.2%). […] The plates were incubated at 5% CO2 and 37° C. for 72 h. After the incubation was complete, the plates were equilibrated at room temperature for 30 min. CellTiter-Glo® Reagent (Promega G7573) was added at 100 μL/well. The plates were shaken for 12 min on a microplate shaker. The luminescence value was measured at room temperature by the GloMax navigator (Promega GM2010).

Assay [2] addresses T1, GSPT1 protein (Homo sapiens, UniProt P15170).
T1 construct: The whole cell lysate was prepared using a RIPA lysis buffer; endogenous in cells; host or cells: NB-4 cells
Put plainly: Degradation of GSPT1 protein in NB-4 cells (Western blot). Conditions: read-out: GSPT1 degradation. In kind it is cell-based. The method, then:
150 μL of DMSO and the compounds (1 μM) were added, and the mixture was incubated in an incubator at 5% CO2 and 37° C. for 6 h. The cells were centrifuged, and the culture medium was discarded. PBS was added for washing and then discarded. The whole cell lysate was prepared using a RIPA lysis buffer containing a protease inhibitor cocktail and a phosphatase inhibitor, and incubated on ice for 30 min. The mixture was centrifuged, and the cell debris was discarded. The whole cell lysate supernatant was collected and transferred to a fresh EP tube. Samples were prepared using a loading buffer after a BCA protein assay. The samples were incubated in a metal bath at 100° C. for 10 min.
The samples were electrophoretically separated from proteins on a 4-20% precast gel (SDS-PAGE gel), transferred to a PVDF membrane, blocked with 5% NFDM/TBST for 1 h at room temperature, co-incubated overnight at 4° C. with the primary antibody, and co-incubated for 2 h at room temperature with the secondary antibody on the next day. The signals were detected on the […]™ imaging system.

T1 sequence (P15170 whole entry): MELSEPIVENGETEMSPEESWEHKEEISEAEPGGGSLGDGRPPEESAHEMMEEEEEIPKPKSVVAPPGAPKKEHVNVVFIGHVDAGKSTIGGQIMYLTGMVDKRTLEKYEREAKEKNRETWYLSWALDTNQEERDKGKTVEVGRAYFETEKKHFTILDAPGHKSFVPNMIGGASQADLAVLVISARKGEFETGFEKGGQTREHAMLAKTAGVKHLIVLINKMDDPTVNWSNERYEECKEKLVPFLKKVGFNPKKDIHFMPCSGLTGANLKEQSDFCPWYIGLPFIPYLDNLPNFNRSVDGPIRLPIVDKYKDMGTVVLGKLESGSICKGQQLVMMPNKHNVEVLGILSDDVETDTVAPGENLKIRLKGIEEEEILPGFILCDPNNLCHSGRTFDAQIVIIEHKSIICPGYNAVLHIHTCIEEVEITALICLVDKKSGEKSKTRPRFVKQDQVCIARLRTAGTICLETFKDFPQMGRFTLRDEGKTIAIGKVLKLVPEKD

On to `NCc1cc2c(cc1Cl)C(=O)N(C1CCC(=O)NC1=O)C2` (stereo not drawn) [FDAB-15], for which the IC50 in assay [1] (MV4-11, MV-4-11 cells, 72 h) is above 1000 nM. For the same compound, the inhibition at 1 µM in assay [2] (NB-4 cells, compound 1 μM, 6 h) was below 25%.

`CC(C)(C)OC(=O)NCc1cc2c(cc1F)C(=O)N(C1CCC(=O)NC1=O)C2` (stereo not drawn) [FDAB-5]: the IC50 in assay [1] (MV4-11, MV-4-11 cells, 72 h) was above 1000 nM. Besides, in assay [2] (NB-4 cells, compound 1 μM, 6 h), the inhibition at 1 µM was below 25%.

For `[2H]c1c([2H])c(C(=O)NCc2ccc3c(c2F)CN(C2CCC(=O)NC2=O)C3=O)c([2H])c([2H])c1Cl` (stereo not drawn) [FDAB-18], in assay [1] (MV4-11, 72 h), the IC50 is 10 to 100 nM. Besides, the inhibition at 1 µM in assay [2] (NB-4, 6 h) is above 80%.

With `O=C(CCc1cccc2ccccc12)NCc1cc(F)cc2c1CN(C1CCC(=O)NC1=O)C2=O` (stereo not drawn) [FDAB-170], the IC50 in assay [1] (MV4-11, MV-4-11 cells, 72 h) fell in the range of 10 to 100 nM. Also, the inhibition at 1 µM in assay [2] (NB-4 cells, compound 1 μM, 6 h) was above 80%.

On to `O=C1CCC(N2Cc3cc(CNC(=O)c4cc5ccccc5[nH]4)c(F)cc3C2=O)C(=O)N1` (stereo not drawn) [FDAB-24], for which, in assay [1] (MV4-11, MV-4-11 cells, 72 h), the half-inhibitory concentration (IC50) was in the range of 1 to 10 nM. For the same compound, the inhibition at 1 µM in assay [2] (NB-4 cells, compound 1 μM, 6 h) is above 80%.

Turning to `COc1ccc(C(=O)NCc2ccc3c(c2F)CN(C2CCC(=O)NC2=O)C3=O)cc1OC` (stereo not drawn) [FDAB-102], the IC50 in assay [1] (MV4-11, MV-4-11 cells, 72 h) is above 1000 nM. Moreover, the inhibition at 1 µM in assay [2] (NB-4 cells, compound 1 μM, 6 h) is below 25%.

`CC(C)(C)OC(=O)NCc1cc2c(cc1Cl)C(=O)N(C1CCC(=O)NC1=O)C2` (stereo not drawn) [FDAB-14]: in assay [1] (MV4-11, MV-4-11 cells, 72 h), the IC50 was above 1000 nM. Besides, the inhibition at 1 µM in assay [2] (NB-4 cells, compound 1 μM, 6 h) is below 25%.

Regarding `O=C(CCCc1ccc(I)cc1)NCc1ccc2c(c1F)CN(C1CCC(=O)NC1=O)C2=O` (stereo not drawn) [FDAB-139], the IC50 in assay [1] (MV4-11, MV-4-11 cells, 72 h) was 1 to 10 nM. The inhibition at 1 µM in assay [2] (NB-4 cells, compound 1 μM, 6 h) was above 80%.

On to `O=C(CCP(c1ccccc1)c1ccccc1)NCc1ccc2c(c1F)CN(C1CCC(=O)NC1=O)C2=O` (stereo not drawn) [FDAB-160], for which the IC50 in assay [1] (MV4-11, MV-4-11 cells, 72 h) is below 1 nM. In addition, in assay [2] (NB-4 cells, compound 1 μM, 6 h), the inhibition at 1 µM was above 80%.

As to `O=C(CCc1cccc2ccccc12)NCc1ccc2c(c1F)CN(C1CCC(=O)NC1=O)C2=O` (stereo not drawn) [FDAB-138], in assay [1] (MV4-11, MV-4-11 cells, 72 h), the concentration for half-maximal inhibition (IC50) is below 1 nM. Moreover, in assay [2] (NB-4 cells, compound 1 μM, 6 h), the inhibition at 1 µM is above 80%.

Regarding `O=C1CCC(N2Cc3c(ccc(CNC(=O)C4(c5ccc(Br)cc5F)CC4)c3F)C2=O)C(=O)N1` (stereo not drawn) [FDAB-141], the IC50 in assay [1] (MV4-11, MV-4-11 cells, 72 h) is above 1000 nM. Further, in assay [2] (NB-4 cells, compound 1 μM, 6 h), the inhibition at 1 µM is below 25%.

For `O=C1CCC(N2Cc3cc(CNC(=O)c4ccccn4)c(F)cc3C2=O)C(=O)N1` (stereo not drawn) [FDAB-29], the IC50 in assay [1] (MV4-11, MV-4-11 cells, 72 h) is above 1000 nM. Besides, the inhibition at 1 µM in assay [2] (NB-4 cells, compound 1 μM, 6 h) is below 25%.

Take `O=C1CCC(N2Cc3cc(CNC(=O)c4cc5cc(Cl)ccc5o4)c(Cl)cc3C2=O)C(=O)N1` (stereo not drawn) [FDAB-72]: the IC50 in assay [1] (MV4-11, MV-4-11 cells, 72 h) is above 1000 nM. Also, in assay [2] (NB-4 cells, compound 1 μM, 6 h), the inhibition at 1 µM is below 25%.

Take `O=C(CCCCN1CCCCC1)NCc1ccc2c(c1F)CN(C1CCC(=O)NC1=O)C2=O` (stereo not drawn) [FDAB-159]: the IC50 in assay [1] (MV4-11, MV-4-11 cells, 72 h) was above 1000 nM. Also, the inhibition at 1 µM in assay [2] (NB-4 cells, compound 1 μM, 6 h) was below 25%.

Consider `O=C1CCC(N2Cc3c(CNC(=O)C(F)(F)c4ccc(Cl)cc4)cc(F)cc3C2=O)C(=O)N1` (stereo not drawn) [FDAB-171], for which, in assay [1] (MV4-11, MV-4-11 cells, 72 h), the IC50 fell in the range of 100 to 1000 nM. In addition, in assay [2] (NB-4 cells, compound 1 μM, 6 h), the inhibition at 1 µM was below 25%.

As for `Cc1cccc(C(=O)NCc2ccc3c(c2F)CN(C2CCC(=O)NC2=O)C3=O)c1` (stereo not drawn) [FDAB-89], the IC50 in assay [1] (MV4-11, MV-4-11 cells, 72 h) is above 1000 nM. Further, the inhibition at 1 µM in assay [2] (NB-4 cells, compound 1 μM, 6 h) is below 25%.

For `O=C1CCC(N2Cc3cc(CNC(=O)c4ccc(F)cc4)c(F)cc3C2=O)C(=O)N1` (stereo not drawn) [FDAB-26], the concentration for half-maximal inhibition (IC50) in assay [1] (MV4-11, MV-4-11 cells, 72 h) was above 1000 nM. Moreover, the inhibition at 1 µM in assay [2] (NB-4 cells, compound 1 μM, 6 h) is below 25%.

For `COc1cc(C)c(/C=C/C(C)=C/C=C/C(C)=C/C(=O)NCc2ccc3c(c2F)CN(C2CCC(=O)NC2=O)C3=O)c(C)c1C` (stereo not drawn) [FDAB-162], the IC50 in assay [1] (MV4-11, MV-4-11 cells, 72 h) was below 1 nM. Besides, the inhibition at 1 µM in assay [2] (NB-4 cells, compound 1 μM, 6 h) is above 80%.

As for `O=C1CCC(N2Cc3cc(CNC(=O)c4cc5cc(F)ccc5o4)c(Cl)cc3C2=O)C(=O)N1` (stereo not drawn) [FDAB-73], the IC50 in assay [1] (MV4-11, MV-4-11 cells, 72 h) was above 1000 nM. The inhibition at 1 µM in assay [2] (NB-4 cells, compound 1 μM, 6 h) is below 25%.

Consider `O=C1CCC(N2Cc3cc(CNC(=O)c4ccncc4)c(F)cc3C2=O)C(=O)N1` (stereo not drawn) [FDAB-31], for which the IC50 in assay [1] (MV4-11, MV-4-11 cells, 72 h) was above 1000 nM. For the same compound, the inhibition at 1 µM in assay [2] (NB-4 cells, compound 1 μM, 6 h) was below 25%.

Turning to `O=C(CSc1ccncc1)NCc1ccc2c(c1F)CN(C1CCC(=O)NC1=O)C2=O` (stereo not drawn) [FDAB-155], in assay [1] (MV4-11, MV-4-11 cells, 72 h), the IC50 is above 1000 nM. For the same compound, the inhibition at 1 µM in assay [2] (NB-4 cells, compound 1 μM, 6 h) is below 25%.

As to `O=C1CCC(N2Cc3c(ccc(CNC(=O)c4cc5ccccc5o4)c3F)C2=O)C(=O)N1` (stereo not drawn) [FDAB-45], the IC50 in assay [1] (MV4-11, MV-4-11 cells, 72 h) fell in the range of 1 to 10 nM. The inhibition at 1 µM in assay [2] (NB-4 cells, compound 1 μM, 6 h) is above 80%.

For `NCc1cc2c(cc1F)C(=O)N(C1CCC(=O)NC1=O)C2` (stereo not drawn) [FDAB-6], in assay [1] (MV4-11, MV-4-11 cells, 72 h), the IC50 was in the range of 10 to 100 nM. The inhibition at 1 µM in assay [2] (NB-4 cells, compound 1 μM, 6 h) lay within 50 to 80%.

Consider `Nc1ccc(C(=O)NCc2cc3c(cc2F)C(=O)N(C2CCC(=O)NC2=O)C3)cc1` (stereo not drawn) [FDAB-27], for which the concentration for half-maximal inhibition (IC50) in assay [1] (MV4-11, MV-4-11 cells, 72 h) is above 1000 nM. The inhibition at 1 µM in assay [2] (NB-4 cells, compound 1 μM, 6 h) is below 25%.

(Values after patent publication US20250282746A1, “HALOGEN-SUBSTITUTED ISOINDOLINE COMPOUND AND USE THEREOF” (CHENGDU FENDI PHARMACEUTICAL CO., LTD., priority 2022, published 2025).)
